What all share (assay type): cell-based, human
The test system of assay [1] is UM-SCC-12 cells. Put plainly: Radiosensitization assay (crystal violet). The conditions noted are these: irradiated 8 Grays 3 hours after compound, viability after 24 hours. The procedure:
(§1) MCF7, MDA-MB-231, 501-MEL, Rosi, A549, SCC-15, SCC-25, UM-SCC-12, UM-SCC-14a, UM-SCC-49 and UM-SCC69 cells were seeded in 96-well tissue culture plates as previously described. After 24 hours, the media were changed to media with LCMT-li at various concentrations as described. After 3 hours, cells were irradiated at doses listed in Table 2 with an RS-2000 X-Ray Irradiator (Rad Source Technologies, Buford, Georgia). Radiation doses were based on published radiosensitization studies. After 24 hours cell viability was assessed using crystal violet staining. Briefly, cells were washed with PBS, then stained with crystal violet solution (0.25 g crystal violet in 20% methanol) for 20 minutes with agitation. The wells were washed 6 times with PBS to remove excess crystal violet. Plates were allowed to dry for 48 hours, and then 200 μL methanol was added to each well. The plates were agitated for 20 minutes to dissolve the crystal violet, and absorbance was read at 560 nm. The
(§2) radiosensitization assays were performed twice, each time with eight replicates per condition.

Assay [2] has as its system MDA-MB-231 cells. The experiment in a line: Radiosensitization assay (crystal violet). Particulars: 10 Grays, data not shown. The procedure: as §1, §2
For assay [3], the system named is UM-SCC-69 cells. Put plainly: Radiosensitization assay (crystal violet). Particulars: irradiated 8 Grays 3 hours after compound, viability after 24 hours, listed as LCMT-li. The procedure: as §1, §2
The test system of assay [4] is SCC-25 cells. The experiment in a line: Radiosensitization assay (crystal violet). The conditions noted are these: irradiated 8 Grays 3 hours after compound, viability after 24 hours. The procedure:
as §1, §2

The test system of a further assay is A549 cells. The experiment in a line: Radiosensitization assay (crystal violet). The conditions noted are these: 4 Grays. The procedure: as §1, §2
The next assay relates to SCC-15 cells. Put plainly: Radiosensitization assay (crystal violet). Particulars: irradiated 8 Grays 3 hours after compound, viability after 24 hours, listed as LCMT-li. How it is done: as §1, §2
The subject of assay [5] is Rosi cells. Put plainly: Radiosensitization assay (crystal violet). The procedure:
as §1, §2

The subject of assay [6] is UM-SCC-49 cells. The experiment in a line: Radiosensitization assay (crystal violet). Particulars: irradiated 8 Grays 3 hours after compound, viability after 24 hours, listed as LCMT-li. How it is done: as §1, §2
Assay [7] deals with MCF7 cells. Put plainly: Radiosensitization assay (crystal violet). The conditions noted are these: 4 Grays. The procedure:
as §1, §2

For the next assay, the system named is 501-MEL cells. Put plainly: Radiosensitization assay (crystal violet). Particulars: 8 Grays. How it is done:
as §1, §2

Assay [8] relates to UM-SCC-12 cells. The experiment in a line: DDR analysis (activated γ-H2AX flow cytometry). The conditions noted are these: LCMT-li alone vs control cells, 24 hours. How it is done:
(§3) Cells were treated with LCMT-li, radiotherapy or both as described for Annexin V assays. After 24 hours, cells were lifted with 0.25% trypsin, 2.21 mM EDTA, stained with Ghost Dye™ 710 and fixed with formaldehyde as described. Cells were washed with PBS with 1% BSA, and permeabilized with PBS with 0.1% Triton X-100 on ice for 10 minutes. Cells were pelleted and washed twice with PBS with 0.02% Triton X-100. Cells were resuspended in PBS with 1% BSA and 0.3% Tween-20, and stained with FITC-anti-activated-γ-H2AX (Biolegend, catalog #613404). Cells were pelleted and washed with PBS with 1% BSA and 0.1% sodium azide. DDR analyses were performed twice with 12 replicates, 104 cells/replicate.

Assay [9] relates to UM-SCC-69 cells. The experiment in a line: DDR analysis (activated γ-H2AX flow cytometry). The procedure: as §3
For assay [10], the system named is SCC-25 cells. The experiment in a line: DDR analysis (activated γ-H2AX flow cytometry). Particulars: LCMT-li alone vs control cells, 24 hours. How it is done:
as §3
For orientation: In flow cytometry, cells or beads pass a laser one at a time.

The test system of another assay is UM-SCC-14a cells. Put plainly: DDR analysis (activated γ-H2AX flow cytometry). The conditions noted are these: LCMT-li alone vs control cells, 24 hours. How it is done: as §3
Assay [11] has as its system UM-SCC-49 cells. The experiment in a line: DDR analysis (activated γ-H2AX flow cytometry). The conditions noted are these: LCMT-li alone vs control cells, 24 hours. The procedure: as §3
For assay [12], the system named is MDA-MB-231 cells. Put plainly: Colony forming assay. Particulars: 50-3.25 μM, one week. The procedure:
(§4) MCF7, MDA-MB-231 and Rosi cells were seeded in 96-well tissue culture plates (Celltreat, Pepperell, Massachusetts) at a density of 90 cells per well (Mayr et al. Int J Mol Sci. 2018; 19(3)). After 24 hours, the media were changed to media containing LB-100 or Compound 2 at various concentrations (50-3.25 μM). Control cells were given fresh media. After one week the media were aspirated and the wells were washed with PBS. Cells were stained with crystal violet solution (0.25 g crystal violet in 20% methanol) for 10 minutes. The wells were washed 6 times with PBS to remove excess crystal violet. Colonies were counted with an ECHO Revolve hybrid microscope at 1.5× magnification. There were ten replicates for each condition.

Assay [13] concerns Rosi cells. Put plainly: Colony forming assay. The conditions noted are these: 50-3.25 μM, one week. The procedure:
as §4

Assay [14] relates to MCF7 cells. Put plainly: Colony forming assay. Particulars: 50-3.25 μM, one week. How it is done: as §4

With `COC(=O)c1c(NC(=O)c2ccccc2C)sc(C(=O)Nc2cccc(C)c2)c1C` [Compound 2, methyl 4-methyl-2-[(2-methylbenzoyl)amino]-5-[[(3-methylphenyl)amino]carbonyl]-3-thiophenecarboxylate], the “LCMT-1i radiosensitizing Concentration” value is 200 µM with UM-SCC-12 cells [1]; 2.5 to 10 µM with UM-SCC-69 cells [3]; 1.25 µM with SCC-25 cells [4] (listed as LCMT-1i); 2.5 to 10 µM with SCC-25 cells [4] (listed as LCMT-li); 2.5 to 10 µM in the assay with SCC-15 cells; 50 µM with Rosi cells [5] (irradiated 8 Grays 3 hours after compound, viability after 24 hours). The “LCMT-1i radiosensitizing Concentration” value in the assay on UM-SCC-49 cells [6] was in the range of 2.5 to 10 µM. Further, the radiosensitization entry in the assay on MDA-MB-231 cells [2] is recorded as “did not radiosensitize MDA-MB-231 cells”; in the assay on A549 cells it was “demonstrated radiosensitization”; in the assay on Rosi cells [5] (8 Grays), “demonstrated radiosensitization”; in the assay with MCF7 cells [7], “did sensitize MCF7 cells to irradiation”; in the assay with 501-MEL cells, “did radiosensitize these cells”. In addition, the “activated γ-H2AX expression” value in the assay with UM-SCC-12 cells [8] was “decreased activated γ-H2AX expression”; with UM-SCC-69 cells [9] (LCMT-li alone vs control cells, 24 hours) it was “decreased activated γ-H2AX expression”; in the assay on SCC-25 cells [10], “increased activated γ-H2AX expression”; in the assay on UM-SCC-14a cells it was “decreased activated γ-H2AX expression”; in the assay on UM-SCC-49 cells [11], “decreased activated γ-H2AX expression”. Moreover, the “DDR (activated γ-H2AX expression)” value with UM-SCC-69 cells [9] (in the presence of irradiation) is on record as “inhibited DDR as evidenced by persistent activated γ-H2AX expression”. For the same compound, the clonogenic colony formation result in the assay on MDA-MB-231 cells [12] is listed as “inhibited colony formation”; with Rosi cells [13] it was “inhibited colony formation”; in the assay on MCF7 cells [14], “inhibited to a lesser extent”.

The record behind these values is patent US20250320190A1, “Novel Inhibitors of Leucine Carboxyl Methyltransferase-1 (LCMT-1) and Methods of Use Thereof” (Temple University-Of The Commonwealth System of Higher …, priority 2024, published 2025).
